In patent US9273058B2 (BRISTOL-MYERS SQUIBB COMPANY, priority 2013, dated 2016):
Read-outs that look alike come from different tables or passages of the source.

Key:
CK1δ = CK1δ (Homo sapiens, UniProt P48730); experiment: CK1δ kinase assay (Caliper LabChip electrophoretic separation of fluoresceinated peptide substrate and product); assay type: biochemical; details: 200 pM CK1δ, 50 μM ATP, 1.5 μM peptide, 22 hours at room temperature
Method in brief: (§1)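 Eleven-concentration compound series in kinase reactions run for 22 hours at room temperature. Terminated with EDTA, with product conversion read by electrophoretic separation. Non-linear regression gave IC50.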

CK1ε = CK1ε (Homo sapiens, UniProt P49674); experiment: CK1ε kinase assay (Caliper LabChip electrophoretic separation of fluoresceinated peptide substrate and product); assay type: biochemical; details: 200 pM CK1ε, 50 μM ATP, 1.5 μM peptide, 22 hours at room temperature
CK1ε, sequence (P49674 whole entry): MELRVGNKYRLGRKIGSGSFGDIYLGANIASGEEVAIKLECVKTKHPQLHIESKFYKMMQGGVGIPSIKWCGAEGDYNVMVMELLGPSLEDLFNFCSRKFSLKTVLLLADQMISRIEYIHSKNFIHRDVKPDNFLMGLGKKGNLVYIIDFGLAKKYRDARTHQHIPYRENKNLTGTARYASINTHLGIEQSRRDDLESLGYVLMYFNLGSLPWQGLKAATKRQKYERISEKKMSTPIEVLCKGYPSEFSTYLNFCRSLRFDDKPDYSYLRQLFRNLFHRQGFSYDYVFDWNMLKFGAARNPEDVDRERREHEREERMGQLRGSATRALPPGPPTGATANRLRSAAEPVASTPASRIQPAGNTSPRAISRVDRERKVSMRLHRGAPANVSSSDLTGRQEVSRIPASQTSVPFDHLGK
Method in brief: as §1

CK1δ, sequence (P48730 whole entry): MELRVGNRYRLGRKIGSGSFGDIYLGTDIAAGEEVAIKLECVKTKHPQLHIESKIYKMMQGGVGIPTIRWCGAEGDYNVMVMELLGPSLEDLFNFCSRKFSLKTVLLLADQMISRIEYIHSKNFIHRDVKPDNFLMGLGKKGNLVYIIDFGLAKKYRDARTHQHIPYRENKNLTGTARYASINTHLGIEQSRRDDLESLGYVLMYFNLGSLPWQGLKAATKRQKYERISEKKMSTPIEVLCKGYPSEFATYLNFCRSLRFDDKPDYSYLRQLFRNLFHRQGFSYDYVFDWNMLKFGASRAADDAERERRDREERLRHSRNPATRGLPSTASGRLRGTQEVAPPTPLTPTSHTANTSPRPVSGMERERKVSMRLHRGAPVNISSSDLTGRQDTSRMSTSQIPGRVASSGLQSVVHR

| IC50 (CK1δ; read-out: CK1δ IC50 range) [nM] | IC50 (CK1ε; read-out: CK1ε IC50 range) [nM] | IC50 (CK1δ; read-out: CK1δ) [nM] | IC50 (CK1ε; read-out: CK1ε) [nM] | SMILES |
| --- | --- | --- | --- | --- |
| 100 to 2000 | 10 to 100 |  |  | CC(C)(C)NC(=O)N1Cc2c(C(N)=O)c(-c3ccc(F)c(Cl)c3)nn2C(C(=O)NC2CC2)C1 (centres unmarked) [Compound A23, N^5-(tert-Butyl)-2-(3-chloro-4-fluorophenyl)-N^7-cyclopropyl-6,7-dihydropyrazolo[1,5-a]pyrazine-3,5,7(4H)-tricarboxamide] |
| 100 to 2000 | 10 to 100 |  |  | CC(C)(C)NC(=O)N1Cc2c(C(N)=O)c(-c3ccc(F)c(Cl)c3)nn2C(C(=O)NC2CC2)C1 (centres unmarked) [Compound A24, N^5-(tert-Butyl)-2-(3-chloro-4-fluorophenyl)-N^7-cyclopropyl-6,7-dihydropyrazolo[1,5-a]pyrazine-3,5,7(4H)-tricarboxamide] |
| 10 to 100 | 10 to 100 |  |  | CC(C)(C)NC(=O)N1Cc2c(C(N)=O)c(-c3ccc(Cl)c(Cl)c3)nn2C(C(F)F)C1 (centres unmarked) [Compound A31, N^5-(tert-Butyl)-2-(3,4-dichlorophenyl)-7-(difluoromethyl)-6,7-dihydropyrazolo[1,5-a]pyrazine-3,5(4H)-dicarboxamide] |
| 0.01 to 10 | 0.01 to 10 |  |  | CC(C)(C)NC(=O)N1Cc2c(C(N)=O)c(-c3ccc(Cl)c(Cl)c3)nn2C(C(F)F)C1 (centres unmarked) [Compound A32, N^5-(tert-Butyl)-2-(3,4-dichlorophenyl)-7-(difluoromethyl)-6,7-dihydropyrazolo[1,5-a]pyrazine-3,5(4H)-dicarboxamide] |
| 0.01 to 10 | 0.01 to 10 |  |  | CC1CN(C(=O)NC(C)(C)C)Cc2c(C(N)=O)c(-c3ccc(Cl)c(Cl)c3)nn21 (centres unmarked) [Compound A33, N^5-(tert-Butyl)-2-(3,4-dichlorophenyl)-7-methyl-6,7-dihydropyrazolo[1,5-a]pyrazine-3,5(4H)-dicarboxamide] |
| 0.01 to 10 | 0.01 to 10 |  |  | CC1CN(C(=O)NC(C)(C)C)Cc2c(C(N)=O)c(-c3ccc(Cl)c(Cl)c3)nn21 (centres unmarked) [Compound A34, N^5-(tert-Butyl)-2-(3,4-dichlorophenyl)-7-methyl-6,7-dihydropyrazolo[1,5-a]pyrazine-3,5(4H)-dicarboxamide] |
| 0.01 to 10 | 0.01 to 10 |  |  | C[C@H]1CN(C(=O)NC2CC(F)(F)C2)Cc2c(C(N)=O)c(-c3ccc(Cl)c(Cl)c3)nn21 [Compound A36, (S)-2-(3,4-Dichlorophenyl)-N^5-(3,3-difluorocyclobutyl)-7-methyl-6,7-dihydropyrazolo[1,5-c]pyrazine-3,5(4H)-dicarboxamide] |
| 10 to 100 | 0.01 to 10 |  |  | CC(C)(C)NC(=O)N1Cc2c(C(N)=O)c(-c3ccc(Cl)c(Cl)c3)nn2C(C(C)(C)O)C1 (centres unmarked) [Compound A37, N^5-(tert-Butyl)-2-(3,4-dichlorophenyl)-7-(2-hydroxypropan-2-yl)-6,7-dihydropyrazolo[1,5-a]pyrazine-3,5(4H)-dicarboxamide] |
| 0.01 to 10 | 0.01 to 10 |  |  | CC(C)(C)NC(=O)N1Cc2c(C(N)=O)c(-c3ccc(Cl)c(Cl)c3)nn2C(C(C)(C)O)C1 (centres unmarked) [Compound A38, N^5-(tert-Butyl)-2-(3,4-dichlorophenyl)-7-(2-hydroxypropan-2-yl)-6,7-dihydropyrazolo[1,5-a]pyrazine-3,5(4H)-dicarboxamide] |
| 0.01 to 10 | 0.01 to 10 |  |  | CC(C)(C)NC(=O)N1Cc2c(C(N)=O)c(-c3ccc(F)c(Cl)c3)nn2C2(C1)CC(F)(F)C2 [Compound A39, N^5′-(tert-Butyl)-2′-(3-chloro-4-fluorophenyl)-3,3-difluoro-4′H-spiro[cyclobutane-1,7′-pyrazolo[1,5-a]pyrazine]-3′,5′(6′H)-dicarboxamide] |
| 0.01 to 10 | 0.01 to 10 |  |  | CC(C)(CO)NC(=O)N1CCn2nc(-c3ccc(F)c(Cl)c3)c(C(N)=O)c2C1 [Compound A48, 2-(3-Chloro-4-fluorophenyl)-N^5-(1-hydroxy-2-methylpropan-2-yl)-6,7-dihydropyrazolo[1,5-a] pyrazine-3,5(4H)-dicarboxamide] |

Second part, the compound before the results:

| SMILES | IC50 (CK1δ; read-out: CK1δ IC50 range) [nM] | IC50 (CK1ε; read-out: CK1ε IC50 range) [nM] | IC50 (CK1δ; read-out: CK1δ) [nM] | IC50 (CK1ε; read-out: CK1ε) [nM] |
| --- | --- | --- | --- | --- |
| CC1(NC(=O)N2Cc3c(C(N)=O)c(-c4ccc(Cl)c(Cl)c4)nn3C(CF)C2)CC(F)(F)C1 (centres unmarked) [Compound A27, 2-(3,4-Dichlorophenyl)-N^5-(3,3-difluoro-1-methylcyclobutyl)-7-(fluoromethyl)-6,7-dihydropyrazolo[1,5-a]pyrazine-3,5(4H)-dicarboxamide] | 0.01 to 10 | 0.01 to 10 |  |  |
| CC1(NC(=O)N2Cc3c(C(N)=O)c(-c4ccc(Cl)c(Cl)c4)nn3C(CF)C2)CC(F)(F)C1 (centres unmarked) [Compound A28, 2-(3,4-Dichlorophenyl)-N^5-(3,3-difluoro-1-methylcyclobutyl)-7-(fluoromethyl)-6,7-dihydropyrazolo[1,5-a]pyrazine-3,5(4H)-dicarboxamide] | 0.01 to 10 | 0.01 to 10 |  |  |
| NC(=O)c1c(-c2ccc(Cl)c(Cl)c2)nn2c1CN(C(=O)NC1CC(F)(F)C1)C[C@H]2CF [Compound A29, (S)-2-(3,4-dichlorophenyl)-N^5-(3,3-difluorocyclobutyl)-7-(fluoromethyl)-6,7-dihydropyrazolo[1,5-a] pyrazine-3,5(4H)-dicarboxamide] | 0.01 to 10 | 0.01 to 10 |  |  |
| NC(=O)c1c(-c2ccc(Cl)c(Cl)c2)nn2c1CN(C(=O)NC1CC(F)(F)C1)C[C@@H]2CF [Compound A30, (R)-2-(3,4-dichlorophenyl)-N^5-(3,3-difluorocyclobutyl)-7-(fluoromethyl)-6,7-dihydropyrazolo[1,5-a] pyrazine-3,5(4H)-dicarboxamide] | 0.01 to 10 | 0.01 to 10 | 0.3 | 0.1 |
| C[C@@H]1CN(C(=O)NC2CC(F)(F)C2)Cc2c(C(N)=O)c(-c3ccc(Cl)c(Cl)c3)nn21 [Compound A35, (R)-2-(3,4-Dichlorophenyl)-N^5-(3,3-difluorocyclobutyl)-7-methyl-6,7-dihydropyrazolo[1,5-a]pyrazine-3,5(4H)-dicarboxamide] | 0.01 to 10 | 0.01 to 10 |  |  |
| NC(=O)c1c(-c2cccc(Cl)c2)nn2c1CN(C(=O)NC1(C(F)(F)F)CC1)CC2 [Compound A40, 2-(3-Chlorophenyl)-N^5-(1-(trifluoromethyl)cyclopropyl)-6,7-dihydropyrazolo[1,5-a]pyrazine-3,5(4H)-dicarboxamide] | 0.01 to 10 | 0.01 to 10 |  |  |
| CC1(NC(=O)N2CCn3nc(-c4cccc(Cl)c4)c(C(N)=O)c3C2)CC1 [Compound A42, 2-(3-Chlorophenyl)-N^5-(1-methylcyclopropyl)-6,7-dihydropyrazolo[1,5-a]pyrazine-3,5(4H)-dicarboxamide] | 0.01 to 10 | 0.01 to 10 |  |  |
| CC(C)(CO)NC(=O)N1CCn2nc(-c3cccc(Cl)c3)c(C(N)=O)c2C1 [Compound A46, 2-(3-Chlorophenyl)-N^5-(1-hydroxy-2-methylpropan-2-yl)-6,7-dihydropyrazolo[1,5-a] pyrazine-3,5(4H)-dicarboxamide] | 0.01 to 10 | 0.01 to 10 |  |  |
| COCC(C)(C)NC(=O)N1CCn2nc(-c3cccc(Cl)c3)c(C(N)=O)c2C1 [Compound A47, 2-(3-Chlorophenyl)-N^5-(1-methoxy-2-methylpropan-2-yl)-6,7-dihydropyrazolo[1,5-a] pyrazine-3,5(4H)-dicarboxamide] | 0.01 to 10 | 0.01 to 10 |  |  |
| NC(=O)c1c(-c2ccc(F)c(Cl)c2)nn2c1CN(C(=O)NC(CF)(CF)CF)CC2 [Compound A49, 2-(3-Chloro-4-fluorophenyl)-N^5-(1,3-difluoro-2-(fluoromethyl)propan-2-yl)-6,7-dihydropyrazolo[1,5-a] pyrazine-3,5(4H)-dicarboxamide] | 0.01 to 10 | 0.01 to 10 |  |  |
| N#Cc1ccc(C23CCC(NC(=O)N4CCn5nc(-c6ccc(F)c(Cl)c6)c(C(N)=O)c5C4)(CC2)CC3)cc1 [Compound A51, 2-(3-Chloro-4-fluorophenyl)-N^5-(4-(4-cyanophenyl)bicyclo[2.2.2]octan-1-yl)-6,7-dihydropyrazolo[1,5-a]pyrazine-3,5(4H)-dicarboxamide] | 0.01 to 10 | 0.01 to 10 |  |  |
| NC(=O)c1c(-c2ccc(F)c(Cl)c2)nn2c1CN(C(=O)NC13CCC(c4ccc(F)cc4)(CC1)CC3)CC2 [Compound A52, 2-(3-Chloro-4-fluorophenyl)-N^5-(4-(4-fluorophenyl)bicyclo[2.2.2]octan-1-yl)-6,7-dihydropyrazolo[1,5-a]pyrazine-3,5(4H)-dicarboxamide] | 0.01 to 10 | 0.01 to 10 |  |  |
| NC(=O)c1c(-c2ccc(F)c(Cl)c2)nn2c1CN(C(=O)NC13CCC(c4ccccc4)(CC1)CC3)CC2 [Compound A53, 2-(3-Chloro-4-fluorophenyl)-N^5-(4-phenylbicyclo[2.2.2]octan-1-yl)-6,7-dihydropyrazolo[1,5-a]pyrazine-3,5(4H)-dicarboxamide] | 0.01 to 10 | 0.01 to 10 |  |  |
| NC(=O)c1c(-c2ccc(F)c(Cl)c2)nn2c1CN(C(=O)NC13CCC(F)(CC1)CC3)CC2 [Compound A54, 2-(3-Chloro-4-fluorophenyl)-N^5-(4-fluorobicyclo[2.2.2]octan-1-yl)-6,7-dihydropyrazolo[1,5-a]pyrazine-3,5(4H)-dicarboxamide] | 0.01 to 10 | 0.01 to 10 |  |  |
| NC(=O)c1c(-c2ccc(F)c(Cl)c2)nn2c1CN(C(=O)NC13CCC(CO)(CC1)CC3)CC2 [Compound A55, 2-(3-Chloro-4-fluorophenyl)-N^5-(4-(hydroxymethyl)bicyclo[2.2.2]octan-1-yl)-6,7-dihydropyrazolo[1,5-a]pyrazine-3,5(4H)-dicarboxamide] | 0.01 to 10 | 0.01 to 10 |  |  |
| NC(=O)c1c(-c2ccc(F)c(Cl)c2)nn2c1CN(C(=O)NC13CCC(CF)(CC1)CC3)CC2 [Compound A56, 2-(3-Chloro-4-fluorophenyl)-N^5-(4-(fluoromethyl)bicyclo[2.2.2]octan-1-yl)-6,7-dihydropyrazolo[1,5-a]pyrazine-3,5(4H)-dicarboxamide] | 0.01 to 10 | 0.01 to 10 |  |  |
